Experiments:
Format in all cases: cell-based, mouse
[1] = test system: PPARγ, aP2 and CD36 mRNAs in C3H10T1/2 cells; test: mRNA expression of adipocyte differentiation factors PPARγ, aP2 and CD36 (real-time PCR)
Source text: (§1) The mRNA expression levels of the osteoblast differentiation factor and the adipocyte differentiation factor in the cells treated with the NK11 compound were investigated.
(§2) First, the expression level of the osteoblast differentiation factor ALP was investigated while differentiating the C3H10T1/2 cells into osteoblasts in the same manner as in […]. Also, the expression levels of the adipocyte differentiation factors PPARγ, aP2 and CD36 compound were investigated while differentiating the C3H10T1/2 cells into adipocytes in the same manner as in Test Example 1.
(§3) Total RNA was extracted using TRIzol (Invitrogen). 1 μg of the isolated RNA was synthesized into cDNA by adding random primers, dNTP and PrimeScript™ reverse transcriptase (Takara). The synthesized cDNA was subjected to real-time PCR using primers and SYBR Premix Ex Taq (Takara).

C3H10T1/2 cells [2] = test: ALP (alkaline phosphatase) production during differentiation of C3H10T1/2 cells into osteoblasts (ALP staining, -b value)
Protocol: The C3H10T1/2 cells derived from mouse embryo fibroblasts are pluripotent stem cells that can differentiate into various cell lineages including osteoblasts. Because one of the characteristics of osteoblasts is the ALP (alkaline phosphatase) activity, the differentiation of the C3H10T1/2 cells into osteoblasts was measured based on the ALP activity.
The C3H10T1/2 cells were cultured with a DMEM medium supplemented with 10% FBS and 1% penicillin/streptomycin under the condition of 37° C. and 5% CO2. The C3H10T1/2 cells were cultured on a 6-well plate at a concentration of 2.5×10^4/mL with a medium containing 10 mM β-glycerophosphate and 50 μg/mL ascorbic acid for osteocyte differentiation. The differentiation was performed for 9 days after adding the NK11 compound at 0.1, 0.5, 1 and 5 μM, while replacing the medium with 3-day intervals. Then, ALP staining was performed using 5-bromo-4-chloro-3-indolyl phosphate/nitro blue tetrazolium (BCIP/NBT).
Then, the Lab color space was measured using the image files of the ALP-stained well plate.

[3] = test system: ALP mRNA in C3H10T1/2 cells; test: mRNA expression of osteoblast differentiation factor ALP (real-time PCR); details: for expression level of ALP, osteogenesis marker (mRNA): Test Example 3: NK11 at 1 μM, other compounds at 5 μM
Source text: as §1, §2, §3

C3H10T1/2 cells [4] = test: Fat production during differentiation of C3H10T1/2 cells into adipocytes (Oil Red O staining); details: for effect of inhibiting adipocyte differentiation: Test Example 3: NK11 at 1 μM, other compounds at 5 μM, vs negative control group (DMSO)
Protocol: After plating the cells on a 6-well plate in the same manner as in Test Example 1, they were cultured for 9 days in a medium containing 1 μM dexamethasone, 5 μg/mL insulin and 1 μM troglitazone for adipocyte differentiation after adding the NK11 compound at 0.1, 0.5, 1 and 5 μM. After completion of differentiation, the medium was removed and the cells were fixed with 10% neutral buffered formalin and stained with 0.5% Oil Red O solution.
Then, the Lab color space was measured using the image files of the Oil Red O-stained well plate.

[5] = Test Example 3: NK11 at 1 μM, other compounds at 5 μM
[6] = Test Example 3: NK11 at 1 μM, other compounds at 5 μM, vs negative control group (DMSO)
[7] = 0.1, 0.5, 1 and 5 μM, 9 days differentiation, compared to DMSO-treated negative control

SMILES | expression levels of the adipocyte-related genes CD36, aP2 and PPARγ [1, 5] | ALP production (C3H10T1/2 cells [2]; [6]) | expression level of ALP, osteogenesis marker (mRNA) [3] | effect of inhibiting adipocyte differentiation (C3H10T1/2 cells [4]) | expression levels of the adipocyte-related genes CD36, aP2 and PPARγ ([1]; 0.1, 0.5, 1 and 5 μM, mRNA, real-time PCR) | ALP production (C3H10T1/2 cells [2]; [7]) | expression of ALP, osteogenesis marker (mRNA) ([3]; at the concentration of 5 μM) | fat production by adipocytes (Oil Red O) (C3H10T1/2 cells [4]; [7]) | ALP production as compared to the NK11 compound (C3H10T1/2 cells [2]; Test Example 3: compound at 5 μM vs NK11 at 1 μM)
COC(=O)[C@@H]1[C@@H](C(=O)OC)[C@H](c2cc(OC)c(O)c(OC)c2)O[C@H]1c1cc(OC)c(O)c(OC)c1 [Chemical Formula 2] | no effect | no difference in ALP production from the negative control group (DMSO) | no effect | no difference in the effect of inhibiting adipocyte differentiation from the negative control group (DMSO) | – | – | – | – | –
COCOc1c(OC)cc([C@@H]2O[C@@H](c3cc(OC)c(OCOC)c(OC)c3)[C@H](CO)[C@H]2CO)cc1OC [Chemical Formula 4] | no effect | no difference in ALP production from the negative control group (DMSO) | no effect | no difference in the effect of inhibiting adipocyte differentiation from the negative control group (DMSO) | – | – | – | – | –
COc1cc([C@@H]2O[C@@H](c3cc(OC)c(O)c(OC)c3)[C@H](COC(=O)/C=C/c3ccc(O)cc3)[C@H]2COC(=O)/C=C\c2ccc(O)cc2)cc(OC)c1O [Chemical Formula 8] | – | – | – | – | decreased the expression levels of the adipocyte-related genes CD36, aP2 and PPARγ in a concentration-dependent manner | increased ALP production in a concentration-dependent manner | expressed highly | inhibited fat production by adipocytes in a concentration-dependent manner | –
COc1cc([C@@H]2O[C@@H](c3cc(OC)c(O)c(OC)c3)[C@H](COC(=O)/C=C/c3ccccc3)[C@H]2COC(=O)/C=C/c2ccccc2)cc(OC)c1O [Chemical Formula 9] | decreased | significant effect of promoting ALP production although slightly lower than that of NK11 | high | showed the effect of inhibiting adipocyte differentiation as the NK11 compound | – | – | – | – | about 2 times
COc1cc([C@@H]2O[C@@H](c3cc(OC)c(O)c(OC)c3)[C@H](CO)[C@H]2CO)cc(OC)c1O [Chemical Formula 10] | no effect | no difference in ALP production from the negative control group (DMSO) | no effect | no difference in the effect of inhibiting adipocyte differentiation from the negative control group (DMSO) | – | – | – | – | –
COc1cc([C@@H]2O[C@@H](c3cc(OC)c(O)c(OC)c3)[C@H](COC(C)=O)[C@H]2COC(C)=O)cc(OC)c1O [Chemical Formula 11] | no effect | no difference in ALP production from the negative control group (DMSO) | no effect | no difference in the effect of inhibiting adipocyte differentiation from the negative control group (DMSO) | – | – | – | – | –

Reference: patent US10494356B2, “Compound promoting osteoblast differentiation and inhibiting adipocyte differentiation, preparation method thereof and application thereof” (SUNG KYUN BIOTECH CO., LTD., priority 2016, dated 2019)
